Results published in patent US20180042874A1, “METHOD FOR TREATING OSTEOPOROSIS” (China Medical University, priority 2016, published 2018).

Tests used:
ovariectomized rats = test: Bone density in ovariectomized osteoporosis rat model; assay type: in vivo, Sprague-Dawley (SD) female rats
Procedure: Inducing osteoporosis animal models and experimental methods: • 1. 6-month old Sprague-Dawley (SD) female rats were purchased; • 2. These rats were divided into 7 groups, of which Group 1 was given pseudo-surgery, Group 2-7 underwent bilateral ovariectomies; • 3. On the 6th day after surgery, 1 mL/kg of vehicle alone was given orally to Group 1, Group 2 daily, Zoledronic Acid and Prolia were administered weekly by injections to Group 3, Group 4, respectively; 1, 3, 10 mg/kg of the compound of formula I was given orally every 3 days to Groups 5-7, respectively; • 4. Body weight and bone density were measured weekly, blood was drawn until the 118th day; • 5. Rats were then sacrificed to obtain kidneys, livers and rat tibia; • 6. Data were consolidated and processed.

[1] = test system: osteolytic activity of osteoclast cells induced by receptor activator of nuclear factor κB ligand; test: Osteolytic activity of osteoclasts on corning osteo assay surface plate; assay type: cell-based, mouse; conditions: 10 μg/ml co-treated with 100 ng/ml RANKL, 12 days
Source text: Effect of the compound of formula I on receptor activator of nuclear factor κB ligand-induced osteocytic activity of the osteoclast cells Osteoclast is a multinuclear cell, which differentiates because of the stimulation of macrophage colony stimulating factor and receptor activator of nuclear factor κB ligand, after differentiation the folds on the edge of the osteoclast form a resorption groove on the cell membrane and the bone surface is […]. In this space, the […] secretes some enzymes and acids. These acids activate the enzymes to initiate osteolysis of bone mineral matrix. […]
In order to confirm the effect of the compound of formula I on the bone resorption capability of differentiated osteoclasts, RAW 264.7 cells were cultured in a 24-well plate (osteo assay plate, 24 well; corning incorporated) containing artificial bone material, the cell number of each well was 2×10^3 cell/ml. […] The number of grooves per each well was counted under a microscope 40× and further photographed for observation.

[2] = Liver and kidney toxicity in ovariectomized osteoporosis rat model; assay type: in vivo, Sprague-Dawley (SD) female rats; conditions: ovariectomized rats, compared to commercially available drugs
Procedure: Inducing osteoporosis animal models and experimental methods: • 1. 6-month old Sprague-Dawley (SD) female rats were purchased; • 2. These rats were divided into 7 groups, of which Group 1 was given pseudo-surgery, Group 2-7 underwent bilateral ovariectomies; • 3. […] Body weight and bone density were measured weekly, blood was drawn until the 118th day; • 5. Rats were then sacrificed to obtain kidneys, livers and rat tibia; • 6. Data were consolidated and processed. [table]

p38 = test: Western blot of MAPK pathway, phosphorylated p38; assay type: cell-based, mouse; conditions: 10 μg/ml co-treated with 100 ng/ml RANKL, 0-60 minutes
Procedure: The effect of the compound of formula I on the protein expression of osteoclast MAPKs pathways induced by receptor activator of nuclear factor κB ligand was studied, experiments were performed by using the Western blot method; RAW 264.7 cells were rinsed in ice-cold PBS, cell lysis buffer was added, the components of the buffer solution included: 10 mM 4-(2-hydroxyethyl)-1-piperazineethanesulfonic acid (HEPES), 1.5 mM MgCl2, 0.5 mM dithiothreitol (DTT), 0.5 μg/ml leupeptin and 6.4% Nonidet P-40, reacted on ice for 15 minutes. The cells were scraped off with a spatula, collected into a 1.5 ml centrifuge tube, the cells were thoroughly broken by using a shaker; centrifuged at 12,000 rpm, 4° C. for 10 minutes; supernatant was added into a new 1.5 ml centrifuge tube; boiled with IX sodiumdodecyl sulfate (SDS) sample buffer, followed by electrophoresis using 10 to 12% SDS-PAGE. […] The transfer membrane was rinsed again and the membrane loaded with chemical luminescence reagent ECL was allowed to react with a photosensitive sheet in a darkroom for a suitable period of time, the photosensitive sheet then reacted with the developer. After the photosensitive sheet was exposed to light a band-shaped antibody-binding proteins was observed, quantified by the density of the bands. […]

Which results are given for CNC(=O)N[C@]1(C)CCC[C@@]2(C)C3CC[C@@]4(C)C[C@]3(CCC21)CC4=O (single isomer, unassigned; ent-16) [compound of formula I, ent-16-oxobeyeran-19-N-methylureido]?
effect on reduced tibial bone density caused by ovarian removal (ovariectomized rats; ovariectomized rats, 1, 3, 10 mg/kg PO once every 3 days, 19 weeks after ovarian removal): improve the reduced tibial bone density; increase of tibial bone density (ovariectomized rats; ovariectomized rats, PO once every 3 days, as compared to the experimental group): 10%; eroded area of the artificial bone material [1]: substantially reduced; osteolytic activity of osteoclast cells [1]: inhibited; cytotoxicity in kidney (blood urea nitrogen, plasma creatinine) [2]: less cytotoxicity in kidney than Zoledronic acid; cytotoxicity in liver (alanine aminotransferase) [2]: less cytotoxicity in liver than Proliaor; expression of phosphorylated p38 (p38): decreased
